Eleven molecules from patent US9611277B2 (Janssen Pharmaceutica NV, priority 2013, dated 2017) can be followed below.

Molecules are shown by their SMILES. pKi: −log10 of the molar value.

The target in one test is rat orexin 1 receptor (Rattus norvegicus, UniProt P56718). Briefly: Rat orexin 1 receptor radioligand binding. Particulars: rat orexin 1 receptor; averages of 2-20 runs; read-out: rOX1 Ki. The method, boiled down:
(§1)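 Competition binding with the tritiated thiazolyl-pyrrolidinyl-methanone radioligand in PBS on homogenized rat or human OX1R-expressing cell suspensions, ≤0.1% DMSO; nonspecific binding defined with 10 μM almorexant. Bound radioactivity read by scintillation after filtration; IC50 from one-site competition fit, converted to Ki using pre-determined radioligand Kd.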

In the next test the target is human orexin 2 receptor (Homo sapiens (Human), UniProt O43614). Put plainly: Human orexin 2 receptor radioligand binding. The note with it: human orexin 2 receptor; averages of 2-20 runs; read-out: hOX2 Ki. The method, boiled down: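 HEK293 cells stably expressing human OX2 receptor, homogenized, incubated with [3H]-EMPA and compounds (DMSO ≤0.1%); nonspecific binding with 10 μM almorexant. Filter-bound radioactivity counted by scintillation; IC50 from one-site competition fit of triplicates, Ki from IC50 and predetermined radioligand Kd, averaged over 2-20 runs.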

In a further test the target is human orexin 1 receptor (Homo sapiens, UniProt O43613). Briefly: Human orexin 1 receptor radioligand binding. Particulars: human orexin 1 receptor; averages of 2-20 runs; read-out: hOX1 Ki. The method, boiled down:
as §1

A word on the pKi: it is the Ki on a negative log10 scale, so that one unit is a factor of ten.

Sequence of human orexin 2 receptor (O43614 whole entry): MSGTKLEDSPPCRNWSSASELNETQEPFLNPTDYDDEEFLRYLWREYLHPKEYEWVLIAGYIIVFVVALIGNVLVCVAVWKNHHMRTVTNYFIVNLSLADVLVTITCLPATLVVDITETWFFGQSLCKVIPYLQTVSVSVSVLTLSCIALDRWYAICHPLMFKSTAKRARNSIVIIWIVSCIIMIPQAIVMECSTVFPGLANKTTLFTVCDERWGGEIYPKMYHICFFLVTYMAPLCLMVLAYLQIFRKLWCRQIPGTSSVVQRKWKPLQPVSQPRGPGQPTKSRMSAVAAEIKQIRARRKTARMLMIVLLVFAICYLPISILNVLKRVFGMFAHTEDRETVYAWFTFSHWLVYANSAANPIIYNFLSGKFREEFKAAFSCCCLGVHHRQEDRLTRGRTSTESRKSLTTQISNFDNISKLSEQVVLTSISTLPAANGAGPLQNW

Turning to `O=C(c1cccc(F)c1-c1ncccn1)N1C[C@@H]2CC[C@H]1[C@H](Oc1ncc(C(F)(F)F)cc1Cl)C2` [Example 281, ((1S,4R,6R)-6-((3-chloro-5-(trifluoromethyl)pyridin-2-yl)oxy)-2-azabicyclo[2.2.2]octan-2-yl)(3-fluoro-2-(pyrimidin-2-yl)phenyl)methanone], the pKi was 8.30 at rat orexin 1 receptor, 6.47 at human orexin 2 receptor and 7.72 on human orexin 1 receptor.
As for `O=C(c1ccccc1-c1ncccn1)N1C[C@H]2C[C@@H](Nc3ncc(Cl)cn3)[C@@H]1C2` [Example 240, ((1S,4S,6R)-6-((5-chloropyrimidin-2-yl)amino)-2-azabicyclo[2.2.1]heptan-2-yl)(2-(pyrimidin-2-yl)phenyl)methanone], the pKi on rat orexin 1 receptor was 7.77; on human orexin 2 receptor, 6.08; at human orexin 1 receptor it was 7.92.
In the same order, the values of `Cc1cnc(C(=O)N2C[C@H]3C[C@@H](Oc4ccc(C(F)(F)F)cn4)[C@@H]2C3)c(-n2ccnn2)c1` [Example 294] are 6.78, 5.85 and 6.24.
Turning to `Cc1cnc(C(=O)N2C[C@H]3C[C@@H](Oc4ccc(C(F)(F)F)cn4)[C@@H]2C3)c(-c2ncccn2)c1` [Example 298], the negative logarithm of the Ki (pKi) at rat orexin 1 receptor is 7.62; on human orexin 2 receptor, less than 5.00; at human orexin 1 receptor, 7.54.
In the same order, the values of `O=C(c1ccccc1-n1nccn1)N1C[C@H]2C[C@@H](Nc3ccc(C(F)(F)F)nn3)[C@@H]1C2` [Example 242, (2-(2H-1,2,3-triazol-2-yl)phenyl)((1S,4S,6R)-6-((6-(trifluoromethyl)pyridazin-3-yl)amino)-2-azabicyclo[2.2.1]heptan-2-yl)methanone] are 7.05, 5.68 and 6.95.
For the molecule `O=C(c1ccc(F)cc1-c1ncccn1)N1C[C@H]2C[C@@H](Oc3cnc(C(F)(F)F)cn3)[C@@H]1C2` [Example 127, (4-fluoro-2-(pyrimidin-2-yl)phenyl)((1S,4R,6R)-6-((5-(trifluoromethyl)pyrazin-2-yl)oxy)-2-azabicyclo[2.2.1]heptan-2-yl)methanone], the pKi at rat orexin 1 receptor was 6.94; at human orexin 2 receptor, less than 5.00; at human orexin 1 receptor, 6.84.
For `O=C(c1c(F)cccc1-c1ncccn1)N1C[C@@H]2CC[C@H]1[C@H](Oc1ccc(C(F)(F)F)cn1)C2` [Example 261, (2-fluoro-6-(pyrimidin-2-yl)phenyl)((1S,4R,6R)-6-((5-(trifluoromethyl)pyridin-2-yl)oxy)-2-azabicyclo[2.2.2]octan-2-yl)methanone], in that order: 7.68, 6.40 and 8.05.
For `O=C(c1ccccc1-c1ncccn1)N1C[C@H]2C[C@@H](Nc3ncc(C(F)(F)F)cn3)[C@@H]1C2` [Example 230, (2-(pyrimidin-2-yl)phenyl)((1S,4S,6R)-6-((5-(trifluoromethyl)pyrimidin-2-yl)amino)-2-azabicyclo[2.2.1]heptan-2-yl)methanone], in that order: 8.40, 6.33 and 8.40.
In the same order, the values of `Cc1cccc(C(=O)N2C[C@H]3C[C@@H](Oc4ccc(C(F)(F)F)cn4)[C@@H]2C3)c1-c1ncc(F)cn1` [Example 91, (2-(5-fluoropyrimidin-2-yl)-3-methylphenyl)((1S,4R,6R)-6-((5-(trifluoromethyl)pyridin-2-yl)oxy)-2-azabicyclo[2.2.1]heptan-2-yl)methanone] are 8.10, 6.48 and 8.22.
In the case of `Cc1ccc(-n2nccn2)c(C(=O)N2C[C@H]3C[C@@H](Oc4ccc(C(F)F)cn4)[C@@H]2C3)n1` [Example 122, ((1S,4R,6R)-6-((5-(difluoromethyl)pyridin-2-yl)oxy)-2-azabicyclo[2.2.1]heptan-2-yl)(6-methyl-3-(2H-1,2,3-triazol-2-yl)pyridin-2-yl)methanone], the negative logarithm of the Ki (pKi) at rat orexin 1 receptor is 7.55; at human orexin 2 receptor it was 6.66; at human orexin 1 receptor it was 7.52.
In the same order, the values of `O=C(c1cccc(F)c1-c1ncccn1)N1C[C@H]2C[C@@H](Nc3ccc(Br)cn3)[C@@H]1C2` [Example 167, ((1S,4S,6R)-6-((5-bromopyridin-2-yl)amino)-2-azabicyclo[2.2.1]heptan-2-yl)(3-fluoro-2-(pyrimidin-2-yl)phenyl)methanone] are 8.70, 6.62 and 8.22.
